{"source": "patent US9932317B2", "about": "“Quinazoline compounds and their use in therapy” (Imperial Innovations Limited, priority 2012, dated 2018)", "key": {"[1]": {"tested_on": "histone marks at KRT17 and FBXO32 promoter region in MDA-MB-231 cells", "assay": "Chromatin Immunoprecipitation (ChIP) at KRT17 and FBXO32 promoter", "type": "cell-based", "details": "MDA-MB-231, 5 μM, 72 h", "protocol": "The fold difference to the untreated sample is shown. Each IP-value has been determined as the relative increase to the no-antibody control and then normalised to GAPDH levels.\n(§1) Chromatin Immunoprecipitation (ChIP) experiments were carried out on treated MDA-MB-231 cells to verify that the detected gene up-regulation is indeed due to chromatin remodelling (FIG. 2). For this, typical silencing marks such as H3K9me3 and H3K27me3 were tested as well as activating marks such as H3K4me3, H3K27ac and H3K9ac. […] It should be noted that greater than 50% cell death is observed for compound 5 (HKMTi-1-011) at this concentration, but not for the others, and the changes observed in histone marks for compound 5 (HKMT-1-011) may reflect ongoing cell death.\nChIP was accomplished using Dynabeads Protein A (Invitrogen #100-01D.) according to (41), except that following the Chelex-DNA purification an additional purification with QIAquick PCR Purification Kit (#28106, Qiagen) was carried out, here the ChIP-products were eluted in 50 μl and for subsequent real-time measurements (as described above) 1.5 μl per reaction was used. The list of Primers can be found in FIG. 7 (Supplementary Table 2)."}, "[2]": {"tested_on": "EZH2 target genes (KRT17, FBXO32) in MDA-MB-231 cells", "assay": "Real-time RT-PCR cell based assay for up-regulation of H3K27me3 silenced genes", "source_text": "In order to monitor the reversal of epigenetic silencing associated with H3K27me3, a cell based assay was established using the breast-cancer cell line MDA-MB-231 for which EZH2 expression levels as well as EZH2 target genes have been characterised (17). For initial characterisation of compound activity two genes (KRT17, FBXO32) were selected which are primarily silenced by H3K27me3 in combination with H3K9me2/3 but are not DNA methylated. Furthermore, the DNA methylated gene (RUNX3) was selected to control for effects at loci that are silenced by H3K27me3 in combination with CpG island DNA methylation. The two enzymes which perform H3K27 methylation (EZH2) and demethylation (JMJD3) were also included. Cell death can lead to the down-regulation of EZH2 and up-regulation of JMJD3 in cells (36) and is therefore important to control for indirect effects due to cell death in such a cell-based assay.\nIn order to identify compounds which can mediate the reactivation of PRC2 silenced genes, MDA-MB-231 cells were treated for 48 h at a concentration of 10 μM of Example compounds 3 (HKMTi-1-005), 4 (HKMTi-1-022) or 5 (HKMTi-1-011), as well as with the comparative examples BIX-01294 or UNC0224, and mRNA levels of KRT17, FBXO32, RUNX3, as well as EZH2 and JMJD3 were measured by real-time RT-PCR. The data were normalised against the housekeeping gene GAPDH as well as RNA pol II (only results for GAPDH are shown, although consistent results were obtained with RNA pol II normalisation). […] The reported G9a/GLP specific inhibitors BIX01294 and UNC0224 have a very different activity profile on gene expression.\n(§2) To characterise example compounds 3 (HKMTi-1-005), 4 (HKMTi-1-022) and 5 (HKMTi-1-011) further, MDA-MB-231 cells were treated for 48 h and 72 h at various concentrations (FIGS. 1d and e). […] At higher doses of compounds cell death started to occur, particularly at 72 h, which coincides with a dramatic drop in GAPDH levels. At these doses, expression of KRT17 was often below the detection limit of low-expressed genes due to cell death (indicated as “*” in FIGS. 1d and e). Independently synthesised batches of Example compounds 3 (HKMTi-1-005), 4 (HKMTi-1-022) and 5 (HKMTi-1-011) were prepared and assessed to ensure reproducibility of our results and indeed confirmed that those compounds could induce gene re-expression of KRT17 and FBXO32.\nCell culture and compound treatment: MDA-MB-231, T47D, MCF7, BT474, BT549 and SKBR3 breast cancer cell lines were cultured in DMEM-Medium supplemented with 10% FCS (#02.00.830, First Link (UK), 2 mM L-Glutamine (#25030-024, Invitrogen), 100 U/ml Penicillin and 100 μg/ml Streptavidin (#15070-063, Invitrogen) until they were ˜60% confluent and then treated for either 48 h or 72 h with a compound. Compounds were diluted in DMSO at Stocks of 10 mM. MCF-10a breast cell lines were cultured in DMEM/F12-Medium supplemented with 5% horse serum, EGF (20 ng/ml), Hydrocortizone ([…]), Cholera Toxin (100 ng/ml), Insulin (10 μg/ml) as well as 100 U/ml Penicillin and 100 μg/ml Streptavidin (#15070-063, Invitrogen). For MTT experiments, cells were either kept in DMEM/F12 growth medium or in normal DMEM-Medium to mimic the ‘normal’ non-dividing cell state.\nFollowing compound treatment for 48 h (in 6-well plates), media was removed and 1.5 ml of TRIzol (#155966018, Invitrogen) was added directly to lyse cells. Once cells were lysed, the protocol was continued with 1 ml (TRIzol, cell lysate) according to the manufactures instructions. Purified RNA was dissolved in 35 μl of UltraPure DNase/RNase-free distilled water (#10977049, Invitrogen). Reverse transcription was done using the SuperScript III First-Strand Synthesis System (#18080-051, Invitrogen) according to the manufactures instructions, using 7 μl of the purified RNA as starting material. For real-time measurements the 2×iQ SYBR Green Supermix (#170-8882, Bio-Rad), 200 nM Primers and 0.4 μl of cDNA/per 20 μl reaction was used. […]"}, "[3]": {"tested_on": "EZH2 target genes in MDA MB-231 cells", "assay": "Agilent two-colour gene expression microarrays, enrichment of EZH2 target genes", "type": "cell-based", "details": "MDA MB-231, 10 μM", "protocol": "Agilent two-colour microarrays were used to profile gene expression changes induced 24 h and 48 h after 10 μM treatment with example compound 3 (HKMTi-1-005) compared to compound HKMTi-1-012. […] Many of these EZH2 target genes are clearly differentially expressed following treatment with example compound 3 (HKMTi-1-005) compared to compound HKMTi-1-012, as shown in Table 2 in FIG. 5. Statistical enrichment of EZH2-target genes (Lee et al 2011) in the lists of differentially expressed genes was evaluated using the hypergeometric distribution. Example compound 3 (HKMTi-1-005) results in significant upregulation (p=3.3^−33 at 24 h and p=3.2^−21 at 48 h) and significant down-regulation (p=3.5^−37 at 24 h and p=3.8^−61 at 48 h) of EZH2 target genes. […]\nNormalised log 2 gene expression ratios were analysed using LIMMA (Smyth 2004) to obtain empirical Bayes moderated t-statistics reflecting statistical significance of differential expression across the 4 replicates for each drug, time combination. […]\nStatistical significance of overlap between these lists of EZH2 targets and the genes differentially expressed upon drug treatment in our microarray study was assessed using the hypergeometric distribution."}, "[4]": {"details": "reported; cited from earlier work"}, "MDA-MB-231 cells": {"tested_on": "MDA-MB-231 cells", "assay": "Cell death of treated MDA-MB-231 cells", "type": "cell-based", "details": "MDA-MB-231, concentration of the ChIP experiment (5 μM, 72 h)", "protocol": "as §2\nas §1, with “death. […]” for “death.”"}, "[5]": {"details": "MDA-MB-231, 10 μM, 48 h, normalised to GAPDH"}, "[6]": {"details": "MDA-MB-231, various concentrations, 48 h and 72 h"}}, "data": [{"smiles": "COc1cc2nc(N3CCN(C)CC3)nc(NC3CCN(Cc4ccccc4)CC3)c2cc1OC", "note": "[HKMTi-1-005]", "values": [{"measurement": "permissive chromatin marks (H3K4me3, H3K4me2, H3K9ac, H3K27ac)", "setting": "[1]", "value": "increase in most permissive marks"}, {"measurement": "repressive chromatin marks (H3K27me3, H3K9me3) at KRT17 and FBXO32", "setting": "[1]", "value": "clear decrease"}, {"measurement": "FBXO32 RNA levels", "setting": "[2]; [5]", "value": "up-regulate"}, {"measurement": "KRT17 RNA levels", "setting": "[2]; [5]", "value": "up-regulate"}, {"measurement": "RUNX3 expression", "setting": "[2]; [5]", "value": "not effecting"}, {"measurement": "FBXO32 mRNA level", "setting": "[2]; [6]", "value": "dose-dependent increase"}, {"measurement": "JMJD3 mRNA level", "setting": "[2]; [6]", "value": "dose-dependent increase"}, {"measurement": "KRT17 mRNA level", "setting": "[2]; [6]", "value": "dose-dependent increase"}, {"measurement": "functional enrichment of changed pathways (DAVID)", "setting": "[3]", "value": "upregulation of apoptosis genes and the lysosome pathway, and a downregulation of a number of processes related to cell cycle & cell division"}]}, {"smiles": "COc1cc2nc(N3CCCN(C)CC3)nc(NC3CCN(Cc4ccccc4)CC3)c2cc1OC", "note": "[BIX-01294, reference compound]", "values": [{"measurement": "separation of functional potency and cell toxicity", "setting": "[4]", "value": "poor separation of functional potency and cell toxicity"}, {"measurement": "FBXO32 RNA levels", "setting": "[2]; [5]", "value": "does up-regulate"}, {"measurement": "KRT17 RNA levels", "setting": "[2]; [5]", "value": "does not up-regulate"}]}, {"smiles": "COc1cc2c(NC3CCN(C)CC3)nc(N3CCCN(C)CC3)nc2cc1OCCCN(C)C", "note": "[UNC0224, reference compound]", "values": [{"measurement": "FBXO32 RNA levels", "setting": "[2]; [5]", "value": "very little effect"}, {"measurement": "KRT17 RNA levels", "setting": "[2]; [5]", "value": "very little effect"}, {"measurement": "gene expression profile in the cell assay (KRT17, FBXO32, RUNX3)", "setting": "[2]; MDA-MB-231, 10 μM, compared with example compounds 3, 4 and 5", "value": "very little effect"}]}, {"smiles": "COc1cc2nc(N3CCN(c4ccccn4)CC3)nc(NC3CCN(Cc4ccccc4)CC3)c2cc1OC", "note": "[HKMTi-1-011]", "values": [{"measurement": "permissive chromatin marks (H3K4me3, H3K4me2, H3K9ac, H3K27ac)", "setting": "[1]", "value": "increase in most permissive marks"}, {"measurement": "repressive chromatin marks (H3K27me3, H3K9me3) at KRT17 and FBXO32", "setting": "[1]", "value": "clear decrease"}, {"measurement": "FBXO32 RNA levels", "setting": "[2]; [5]", "value": "up-regulate"}, {"measurement": "KRT17 RNA levels", "setting": "[2]; [5]", "value": "up-regulate"}, {"measurement": "RUNX3 expression", "setting": "[2]; [5]", "value": "not effecting"}, {"measurement": "FBXO32 mRNA level", "setting": "[2]; [6]", "value": "increase in a dose dependent manner"}, {"measurement": "JMJD3 mRNA level", "setting": "[2]; [6]", "value": "increase in a dose dependent manner"}, {"measurement": "KRT17 mRNA level", "setting": "[2]; [6]", "value": "increase in a dose dependent manner"}, {"measurement": "cell death", "setting": "MDA-MB-231 cells", "value": "greater than 50%"}]}, {"smiles": "COc1cc2nc(N3CCCCC3)nc(NC3CCN(Cc4ccccc4)CC3)c2cc1OC", "note": "[HKMTi-1-022]", "values": [{"measurement": "JMJD3 binding", "setting": "[1]", "value": "increase"}, {"measurement": "permissive chromatin marks (H3K4me3, H3K4me2, H3K9ac, H3K27ac)", "setting": "[1]", "value": "increase of the activating marks H3K4me3, H3K27ac and H3K9ac"}, {"measurement": "repressive chromatin marks (H3K27me3, H3K9me3) at KRT17 and FBXO32", "setting": "[1]", "value": "clear decrease"}, {"measurement": "permissive chromatin marks (H3K4me3, H3K4me2, H3K9ac, H3K27ac)", "setting": "[1]; listed as HKMT-1-022", "value": "concomitant increase in all permissive chromatin marks examined"}, {"measurement": "FBXO32 RNA levels", "setting": "[2]; [5]", "value": "up-regulate"}, {"measurement": "KRT17 RNA levels", "setting": "[2]; [5]", "value": "up-regulate"}, {"measurement": "RUNX3 expression", "setting": "[2]; [5]", "value": "not effecting"}, {"measurement": "FBXO32 mRNA level", "setting": "[2]; [6]", "value": "increase in a dose dependent manner"}, {"measurement": "JMJD3 mRNA level", "setting": "[2]; [6]", "value": "increase in a dose dependent manner"}, {"measurement": "KRT17 mRNA level", "setting": "[2]; [6]", "value": "increase in a dose dependent manner"}]}, {"smiles": "Nc1nccc2c1ncn2C1C=C(CO)C(O)C1O", "note": "(stereo not drawn) [DZNep, reference compound]", "values": [{"measurement": "EZH2 mRNA level", "setting": "[2]; [6]", "value": "unaffected"}, {"measurement": "FBXO32 mRNA level", "setting": "[2]; [6]", "value": "unaffected"}, {"measurement": "JMJD3 mRNA level", "setting": "[2]; [6]", "value": "unaffected"}, {"measurement": "KRT17 mRNA level", "setting": "[2]; [6]", "value": "consistently up-regulated"}, {"measurement": "RUNX3 expression", "setting": "[2]; [6]", "value": "increased under certain conditions although not in a dose dependent manner"}]}]}
